Reference: patent publication US20040122083A1, “Antitubulin assembly and cell growth inhibitor denominated "dioxostatin"” (priority 2003, published 2004)
≈ marks a conversion by molar mass, not a printed value. Like-named read-outs stand apart in the source and are kept apart here.

Assays:
KM20L2 = test: Human cancer cell line growth inhibition, Colon KM20L2; assay type: cell-based; details: for GI50: Homo sapiens, KM-20L2
A498 = test: Human cancer cell line growth inhibition, Renal A498; assay type: cell-based; details: for GI50: Homo sapiens
DU-145 = test: Human cancer cell line growth inhibition, Prostate DU-145; assay type: cell-based; details: for GI50: Homo sapiens
SK-N-SH = test: Human cancer cell line growth inhibition, Neuroblast SK-N-SH; assay type: cell-based; details: for GI50: Homo sapiens
Streptococcus pneumoniae = test: Disk susceptibility testing; assay type: cell-based
From the text: (§1) Antimicrobial susceptibility testing. […] Eur. J. Med. Chem. 1998, 33, 71-77).

FADU = test: Human cancer cell line growth inhibition, Pharynx-sq FADU; assay type: cell-based; details: for GI50: Homo sapiens, FaDu
BXPC-3 = test: Human cancer cell line growth inhibition, Pancreas-a BXPC-3; assay type: cell-based; details: for GI50: Homo sapiens
OVCAR-3 = test: Human cancer cell line growth inhibition, Ovarian OVCAR-3; assay type: cell-based; details: for GI50: Homo sapiens
tubulin [1] = biological target: T1, tubulin (Bos taurus, UniProt P81947+Q6B856); test: Inhibition of tubulin polymerization (assembly); assay type: biochemical
T1 sequence (Q6B856 whole entry): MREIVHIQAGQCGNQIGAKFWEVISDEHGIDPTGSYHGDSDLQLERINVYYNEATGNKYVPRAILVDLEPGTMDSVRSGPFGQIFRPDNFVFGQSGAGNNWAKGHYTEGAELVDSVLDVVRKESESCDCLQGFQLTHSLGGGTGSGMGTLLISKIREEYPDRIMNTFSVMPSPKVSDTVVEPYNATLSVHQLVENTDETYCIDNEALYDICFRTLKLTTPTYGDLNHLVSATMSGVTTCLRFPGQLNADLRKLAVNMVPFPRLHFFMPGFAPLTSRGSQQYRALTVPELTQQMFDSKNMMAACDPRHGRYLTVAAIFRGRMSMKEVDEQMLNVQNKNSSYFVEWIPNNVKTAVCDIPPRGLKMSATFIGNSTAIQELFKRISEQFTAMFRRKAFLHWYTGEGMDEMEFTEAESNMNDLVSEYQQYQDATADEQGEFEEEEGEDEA
T1 sequence (P81947 whole entry): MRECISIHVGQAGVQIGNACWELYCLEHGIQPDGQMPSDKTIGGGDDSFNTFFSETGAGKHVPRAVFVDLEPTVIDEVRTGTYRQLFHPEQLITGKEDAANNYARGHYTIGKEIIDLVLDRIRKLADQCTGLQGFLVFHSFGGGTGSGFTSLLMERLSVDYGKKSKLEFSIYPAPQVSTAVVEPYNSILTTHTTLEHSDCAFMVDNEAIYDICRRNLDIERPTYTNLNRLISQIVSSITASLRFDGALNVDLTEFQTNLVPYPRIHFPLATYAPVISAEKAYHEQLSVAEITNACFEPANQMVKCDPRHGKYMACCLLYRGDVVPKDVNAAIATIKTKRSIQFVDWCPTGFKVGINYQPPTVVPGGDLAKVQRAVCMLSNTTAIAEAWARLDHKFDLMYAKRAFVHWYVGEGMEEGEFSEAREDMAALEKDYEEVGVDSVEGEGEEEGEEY
Experimental: (§2) Tubulin assays. The tubulin polymerizion and colchicine binding experiments were performed as described previously (See: Verdier-Pinard, P.; Lai, J -Y.; Yoo, H -D.; Yu, J.; Marquez, B.; Nagle, D. G.; Nambu, M.; White, J. D.; Falck, J. R; Gerwick, W. H.; Day, B. W.; Hamel, E. Mol. Pharmacol. 1998, 53, 62-76). However, in the polymerization assays Beckman DU7400/7500 spectrophotometers equipped with “high performance” temperature controllers were used. […] Temperature changes were, however, more rapid, with the jump from the lower temperature to 30EC taking about 20 sec and the reverse jump about 100 sec.

NCI-H460 = test: Human cancer cell line growth inhibition, Lung-NSC NCI-H460; assay type: cell-based; details: for GI50: Homo sapiens
SW1736 = test: Human cancer cell line growth inhibition, Thyroid ca SW1736; assay type: cell-based; details: for GI50: Homo sapiens, SW-1736
SF-295 = test: Human cancer cell line growth inhibition, CNS SF-295; assay type: cell-based; details: for GI50: Homo sapiens
[2] = system: the ten bacteria and fungi tested; test: Disk susceptibility testing, whole panel; assay type: cell-based; details: at 100 μg/disk
From the text: as §1

tubulin [3] = biological target: T1, tubulin; test: Inhibition of [3H]colchicine binding to tubulin
Experimental: as §2

Neisseria gonorrhoeae = test: Disk susceptibility testing; assay type: cell-based
From the text: as §1

[4] = Table II, tubulin concentration 10 μM, read-out: Inhibition of tubulin Polymerization IC50 ± SD
[5] = Table IV and text, read-out: Inhibition of Tubulin Assembly IC50 ± SD

SMILES	Colon KM20L2 GI50 (KM20L2) [µg/mL]	Renal A498 GI50 (A498) [µg/mL]	Prostate DU-145 GI50 (DU-145) [µg/mL]	Neuroblast SK-N-SH GI50 (SK-N-SH) [µg/mL]	Minimum inhibitory Concentration (Streptococcus pneumoniae)	Pharynx-sq FADU GI50 (FADU) [µg/mL]	Pancreas-a BXPC-3 GI50 (BXPC-3) [µg/mL]	Ovarian OVCAR-3 GI50 (OVCAR-3) [µg/mL]	IC50 (tubulin [1]; [4]) [µM]	Lung-NSC NCI-H460 GI50 (NCI-H460) [µg/mL]	Thyroid ca SW1736 GI50 (SW1736) [µg/mL]	CNS SF-295 GI50 (SF-295) [µg/mL]	GI50 (KM20L2) [µg/mL]	GI50 (A498) [µg/mL]	GI50 (DU-145) [µg/mL]	melting point [°C]	GI50 (SK-N-SH) [µg/mL]	GI50 (FADU) [µg/mL]	GI50 (BXPC-3) [µg/mL]	GI50 (OVCAR-3) [µg/mL]	other results
COc1ccc([C@@H](O)[C@H](O)c2cc(OC)c(OC)c(OC)c2)cc1O [(R,R)-3a]	8.2	>10	3.5	1.5	50-100 μg/disk	2.1	>10	4.5	> 40	4.4	6.1	5.7									
COc1ccc([C@@H](O)[C@H](O)c2cc(OC)c(OC)c(OC)c2)c(O)c1O [(R,R)-3b, (1R,2R)-1,2-Dihydroxy-1-(2′,3′-dihydroxy-4′-methoxyphenyl)-2-(3″,4″,5″-trimethoxyphenyl)-ethane]													7 (≈ 19.1 µM)	> 10	> 10	64 to 66	3.1 (≈ 8.46 µM)	4.9 (≈ 13.4 µM)	> 10	7.2 (≈ 19.7 µM)	Microbe(s) inhibited, whole panel [2]: * (at 100 μg/disk, no inhibition of the ten bacteria and fungi tested); GI50 (NCI-H460): 7.9 µg/mL (≈ 21.6 µM); GI50 (SW1736): > 10 µg/mL; GI50 (SF-295): 2.6 µg/mL (≈ 7.1 µM)
COc1ccc([C@H]2OCO[C@@H]2c2cc(OC)c(OC)c(OC)c2)c(O)c1O [(R,R)-10a, (4R,5R)-4-(2′,3′-Dihydroxy-4′-methoxyphenyl)-5-(3″,4″,5″-trimethoxyphenyl)-1,3-dioxolane]	>10		>10				>10	>10		>10		5.0									% Inhibition Colchicine binding ± SD (tubulin [3]; 5 μM Inhibitor): 14 ± 5%; % Inhibition Colchicine binding ± SD (tubulin [3]; 50 μM Inhibitor): 57 ± 0.8%; IC50 (tubulin [1]; [5]): 5.7 ± 0.8 µM
COc1ccc([C@H](O)[C@@H](O)c2cc(OC)c(OC)c(OC)c2)cc1O [(S,S)-4a]	0.52	0.91	2.1	0.28	25-50 μg/disk	0.60	3.9	0.38	14 ± 2	2.5	1.8	0.52									
COc1ccc([C@H](O)[C@@H](O)c2cc(OC)c(OC)c(OC)c2)c(O)c1O [(S,S)-4b]													> 10	> 10	> 10	64 to 66	3.8 (≈ 10.4 µM)	> 10	> 10	> 10	Minimum inhibitory Concentration (Neisseria gonorrhoeae): 25-50 μg/disk; GI50 (NCI-H460): > 10 µg/mL; GI50 (SW1736): > 10 µg/mL; GI50 (SF-295): 2.9 µg/mL (≈ 7.92 µM)
COc1ccc([C@@H]2OCO[C@H]2c2cc(OC)c(OC)c(OC)c2)c(O)c1O [(S,S)-9a, (4S,5S)-4-(2′,3′-dihydroxy-4′-methoxyphenyl)-5-(3″,4″,5″-trimethoxyphenyl)-1,3-dioxolane]	5.0		3.0				5.4	4.3		>10		2.9									% Inhibition Colchicine binding ± SD (tubulin [3]; 1 μM Inhibitor): 67 ± 6%; % Inhibition Colchicine binding ± SD (tubulin [3]; 5 μM Inhibitor): 91 ± 1%; IC50 (tubulin [1]; [5]): 0.59 µM
